19 compounds from US7250413B2, “C-25 carbamate rifamycin derivatives with activity against drug-resistant microbes” (Cumbre Pharmaceuticals Inc., priority 2004, dated 2007) can be followed below.

Common to all, as to assay: MIC, microbroth dilution
Common to all, as to format: cell-based

Test [1] deals with Enterococcus faecalis ATCC29212. Here is the method: (§1) Representative compounds were assayed for antimicrobial activity as follows: Minimum Inhibitory Concentrations (“MICs”) were determined by the microbroth dilution method as per NCCLS guidelines (National Committee for Clinical Laboratory Standards, 2000), except that all growth incubations were conducted at 37° C. Bacterial cultures were tested in the following bacteriological media: S. aureus, S. epidermidis, and E. coli in Cation-Adjusted Mueller-Hinton Broth, S. pneumoniae in THY Broth supplemented with 1 mg/mL catalase under 5% CO2 atmosphere, S. pyogenes in THY Broth, E. faecalis in BHI Broth, H. influenzae in BHI Broth supplemented with 0.75 μL of 1 mg/mL NAD and 150 μL of 1 mg/ml hematin per 5 mL, and M smegmatis in Middlebrook Broth plus ADC Enrichment.

Test [2] relates to Mycobacterium smegmatis ATCC700084. Particulars: Mycolicibacterium smegmatis, ATCC700084; rifS; Middlebrook Broth plus ADC Enrichment, 37° C.; read-out: MIC. The protocol:
as §1

The subject of test [3] is Staphylococcus aureus ATCC29213. Here is the method: as §1
[4] abbreviates: rifS, BHI Broth, 37° C., read-out: MIC.
The mark [5] stands for this setting: rifS, Cation-Adjusted Mueller-Hinton Broth, 37° C., read-out: MIC.

Structures are written as SMILES. ≈ marks a conversion by molar mass, not a printed value. Like-named read-outs stand apart in the source and are kept apart here.

As for `CO[C@H]1/C=C/O[C@@]2(C)Oc3c(C)c(O)c4c(c3C2=O)C(=O)C(N2CCOCC2)=C(NC(=O)/C(C)=C\C=C\[C@H](C)[C@H](O)[C@@H](C)[C@@H](O)[C@@H](C)[C@H](OC(=O)N2CCN(C)CC2)[C@@H]1C)C4=O` [Example 6, 25-O-Desacetyl-(1-carbonyl-4-methyl-piperazine) 3-morpholino rifamycin S], the MIC fell in the range of 0.25 to 62 µg/mL (≈ 0.289 to 71.7 µM) in test [1] (setting [4]), 0.063 to 31 µg/mL in test [2] and 0.002 to 1.95 µg/mL (≈ 0.00231 to 2.25 µM) in test [3] (setting [5]).
In the same order, the values of `CO[C@H]1/C=C/O[C@@]2(C)Oc3c(C)c(O)c4c(c3C2=O)C(=O)C(N2CCOCC2)=C(NC(=O)/C(C)=C\C=C\[C@H](C)[C@H](O)[C@@H](C)[C@@H](O)[C@@H](C)[C@H](OC(=O)N2CCC(N3CCN(c5cc6c(cc5F)c(=O)c(C(=O)O)cn6C5CC5)CC3)CC2)[C@@H]1C)C4=O` [Example 57] are 0.25 to 62 µg/mL (≈ 0.212 to 52.6 µM), 0.063 to 31 µg/mL and 0.002 to 1.95 µg/mL (≈ 0.0017 to 1.65 µM).
Turning to `C=CCNC(=O)O[C@H]1[C@H](C)[C@H](O)[C@H](C)[C@@H](O)[C@@H](C)/C=C/C=C(/C)C(=O)NC2=C(N3CCOCC3)C(=O)c3c(c(O)c(C)c4c3C(=O)[C@@](C)(O/C=C/[C@H](OC)[C@H]1C)O4)C2=O` [Example 8, 25-O-Desacetyl-(carbonyl-allylamino) 3-morpholino rifamycin S], the figures for the minimal inhibitory concentration (MIC) in test [1] (setting [4]), in test [2] and in test [3] (setting [5]) were 0.25 to 62 µg/mL (≈ 0.304 to 75.4 µM), 0.063 to 31 µg/mL and 0.002 to 1.95 µg/mL (≈ 0.00243 to 2.37 µM), respectively.
In the same order, the values of `CCN(CC)C(=O)O[C@H]1[C@H](C)[C@H](O)[C@H](C)[C@@H](O)[C@@H](C)/C=C/C=C(/C)C(=O)NC2=C(N3CCOCC3)C(=O)c3c(c(O)c(C)c4c3C(=O)[C@@](C)(O/C=C/[C@H](OC)[C@H]1C)O4)C2=O` [Example 10, 25-O-Desacetyl-(1-carbonyl-2-diethylamine) 3-morpholino rifamycin S] are 0.25 to 62 µg/mL (≈ 0.298 to 74 µM), 0.063 to 31 µg/mL and 0.002 to 1.95 µg/mL (≈ 0.00239 to 2.33 µM).
Regarding `CO[C@H]1/C=C/O[C@@]2(C)Oc3c(C)c(O)c4c(c3C2=O)C(=O)C(N2CCOCC2)=C(NC(=O)/C(C)=C\C=C\[C@H](C)[C@H](O)[C@@H](C)[C@@H](O)[C@@H](C)[C@H](OC(=O)NCCCc2ccccc2)[C@@H]1C)C4=O` [Example 24, 25-O-Desacetyl-(carbonyl-3-phenylpropylamino) 3-morpholino rifamycin S], the values for the MIC in test [1] (setting [4]), in test [2] and in test [3] (setting [5]) were 0.25 to 62 µg/mL (≈ 0.278 to 68.9 µM), 0.063 to 31 µg/mL and 0.002 to 1.95 µg/mL (≈ 0.00222 to 2.17 µM), respectively.
For the compound `CO[C@H]1/C=C/O[C@@]2(C)Oc3c(C)c(O)c4c(c3C2=O)C(=O)C(N2CCOCC2)=C(NC(=O)/C(C)=C\C=C\[C@H](C)[C@H](O)[C@@H](C)[C@@H](O)[C@@H](C)[C@H](OC(=O)NCc2ccc([N+](=O)[O-])cc2)[C@@H]1C)C4=O` [Example 40, 25-O-Desacetyl-(carbonyl-4-nitro-benzylamine) 3-morpholino rifamycin S], the MIC lay in the range of 0.25 to 62 µg/mL (≈ 0.273 to 67.6 µM) in test [1] (setting [4]), 0.063 to 31 µg/mL in test [2] and 0.002 to 1.95 µg/mL (≈ 0.00218 to 2.13 µM) in test [3] (setting [5]).
Turning to `CO[C@H]1/C=C/O[C@@]2(C)Oc3c(C)c(O)c4c(c3C2=O)C(=O)C(N2CCOCC2)=C(NC(=O)/C(C)=C\C=C\[C@H](C)[C@H](O)[C@@H](C)[C@@H](O)[C@@H](C)[C@H](OC(=O)NCCc2ccc(Cl)cc2)[C@@H]1C)C4=O` [Example 38, 25-O-Desacetyl-(carbonyl-2-(4-Chloro-phenyl)-ethylamine) 3-morpholino rifamycin S], the minimal inhibitory concentration (MIC) in test [1] (setting [4]) was 0.25 to 62 µg/mL (≈ 0.272 to 67.4 µM); in test [2] it was 0.063 to 31 µg/mL; in test [3] (setting [5]), 0.002 to 1.95 µg/mL (≈ 0.00217 to 2.12 µM).
For `COc1c(N2CCN(C(=O)CNC(=O)O[C@H]3[C@H](C)[C@H](O)[C@H](C)[C@@H](O)[C@@H](C)/C=C/C=C(/C)C(=O)NC4=C(N5CCOCC5)C(=O)c5c(c(O)c(C)c6c5C(=O)[C@@](C)(O/C=C/[C@H](OC)[C@H]3C)O6)C4=O)CC2)c(F)cc2c(=O)c(C(=O)O)cn(C3CC3)c12` [Example 64] the same measures were 0.25 to 62 µg/mL (≈ 0.211 to 52.4 µM), 0.063 to 31 µg/mL and 0.002 to 1.95 µg/mL (≈ 0.00169 to 1.65 µM).
As for `CO[C@H]1/C=C/O[C@@]2(C)Oc3c(C)c(O)c4c(c3C2=O)C(=O)C(N2CCOCC2)=C(NC(=O)/C(C)=C\C=C\[C@H](C)[C@H](O)[C@@H](C)[C@@H](O)[C@@H](C)[C@H](OC(=O)NCc2cccc3ccccc23)[C@@H]1C)C4=O` [Example 23, 25-O-Desacetyl-(carbonyl-naphthalen-1-ylmethyl-amino) 3-morpholino rifamycin S], the values for the MIC in test [1] and in test [3] were 0.25 to 62 µg/mL (≈ 0.271 to 67.2 µM) and 0.002 to 1.95 µg/mL (≈ 0.00217 to 2.11 µM), respectively.
As for `CO[C@H]1/C=C/O[C@@]2(C)Oc3c(C)c(O)c4c(c3C2=O)C(=O)C(N2CCOCC2)=C(NC(=O)/C(C)=C\C=C\[C@H](C)[C@H](O)[C@@H](C)[C@@H](O)[C@@H](C)[C@H](OC(=O)NC2CCN(c3c(F)cc5c(=O)c(C(=O)O)cn(C6CC6)c5c3Cl)C2)[C@@H]1C)C4=O` (some centres unmarked) [Example 67, 25-O-Desacetyl-(carbonyl-N-7-(3-amino-pyrrolidin-1-yl)-8-chloro-1-cyclopropyl-6-fluoro-4-oxo-1,4-dihydro-quinoline-3-carboxylic acid) 3-morpholino rifamycin S], the MIC in test [1] (setting [4]) fell in the range of 0.25 to 62 µg/mL (≈ 0.221 to 54.8 µM); in test [2], 0.063 to 31 µg/mL; in test [3] (setting [5]), 0.002 to 1.95 µg/mL (≈ 0.00177 to 1.72 µM).
In the same order, the values of `CO[C@H]1/C=C/O[C@@]2(C)Oc3c(C)c(O)c4c(c3C2=O)C(=O)C(N2CCOCC2)=C(NC(=O)/C(C)=C\C=C\[C@H](C)[C@H](O)[C@@H](C)[C@@H](O)[C@@H](C)[C@H](OC(=O)NCCCCc2ccccc2)[C@@H]1C)C4=O` [Example 34, 25-O-Desacetyl-(carbonyl-4-phenyl-butylamine) 3-morpholino rifamycin S] are 0.25 to 62 µg/mL (≈ 0.274 to 67.8 µM), 0.063 to 31 µg/mL and 0.002 to 1.95 µg/mL (≈ 0.00219 to 2.13 µM).
In the same order, the values of `CO[C@H]1/C=C/O[C@@]2(C)Oc3c(C)c(O)c4c(c3C2=O)C(=O)C(N2CCOCC2)=C(NC(=O)/C(C)=C\C=C\[C@H](C)[C@H](O)[C@@H](C)[C@@H](O)[C@@H](C)[C@H](OC(=O)N2CCN(c3ccc(F)cc3)CC2)[C@@H]1C)C4=O` [Example 12, 25-O-Desacetyl-(1-carbonyl-1-(4-fluorophenyl)-piperazine) 3-morpholino rifamycin S] are 0.25 to 62 µg/mL (≈ 0.265 to 65.6 µM), 0.063 to 31 µg/mL and 0.002 to 1.95 µg/mL (≈ 0.00212 to 2.06 µM).
In the same order, the values of `CO[C@H]1/C=C/O[C@@]2(C)Oc3c(C)c(O)c4c(c3C2=O)C(=O)C(N2CCOCC2)=C(NC(=O)/C(C)=C\C=C\[C@H](C)[C@H](O)[C@@H](C)[C@@H](O)[C@@H](C)[C@H](OC(=O)NCCN2CCCC2)[C@@H]1C)C4=O` [Example 32, 25-O-Desacetyl-(carbonyl-2-Pyrrolidin-1-yl-ethylamine) 3-morpholino rifamycin S] are 0.25 to 62 µg/mL (≈ 0.284 to 70.5 µM), 0.063 to 31 µg/mL and 0.002 to 1.95 µg/mL (≈ 0.00228 to 2.22 µM).
In the case of `CCN1CC2CN(C(=O)O[C@H]3[C@H](C)[C@H](O)[C@H](C)[C@@H](O)[C@@H](C)/C=C/C=C(/C)C(=O)NC4=C(N5CCOCC5)C(=O)c5c(c(O)c(C)c6c5C(=O)[C@@](C)(O/C=C/[C@H](OC)[C@H]3C)O6)C4=O)CC2C1` (some centres unmarked) [Example 29, 25-O-Desacetyl-(carbonyl-2-ethyl-octahydro-pyrrolo[3,4-c]pyrrole) 3-morpholino rifamycin S], the figures for the MIC in test [1] (setting [4]), in test [2] and in test [3] (setting [5]) were 0.25 to 62 µg/mL (≈ 0.276 to 68.5 µM), 0.063 to 31 µg/mL and 0.002 to 1.95 µg/mL (≈ 0.00221 to 2.15 µM), respectively.
In the same order, the values of `CO[C@H]1/C=C/O[C@@]2(C)Oc3c(C)c(O)c4c(c3C2=O)C(=O)C(N2CCOCC2)=C(NC(=O)/C(C)=C\C=C\[C@H](C)[C@H](O)[C@@H](C)[C@@H](O)[C@@H](C)[C@H](OC(=O)NCc2cccc(Cl)c2)[C@@H]1C)C4=O` [Example 39, 25-O-Desacetyl-(carbonyl-3-chloro-benzylamine) 3-morpholino rifamycin S] are 0.25 to 62 µg/mL (≈ 0.276 to 68.4 µM), 0.063 to 31 µg/mL and 0.002 to 1.95 µg/mL (≈ 0.00221 to 2.15 µM).
Regarding `CO[C@H]1/C=C/O[C@@]2(C)Oc3c(C)c(O)c4c(c3C2=O)C(=O)C(N2CCOCC2)=C(NC(=O)/C(C)=C\C=C\[C@H](C)[C@@H]2OC(C)(C)O[C@@H]([C@@H](C)[C@H](OC(=O)n3cc[n+](Cc5ccccc5)c3)[C@@H]1C)[C@@H]2C)C4=O` [Example 5, 1-Benzyl-3-(25-O-desacetyl-(carbonyl-cyclic-21,23-(1-methylethylideneacetal) 3-morpholinorifamycin S))-3H-imidazol-1-ium], the MIC in test [1] (setting [4]) lay within 0.25 to 62 µg/mL; in test [2], 0.063 to 31 µg/mL; in test [3] (setting [5]), 0.002 to 1.95 µg/mL.
`COc1cncc(NC(=O)c2ccc(N3CCNCC3)c(C(F)(F)F)c2)c1` [Example 52, N-(5-Methoxy-pyridin-3-yl)-4-piperazin-1-yl-3-trifluoromethyl-benzamide]: the MIC was 0.25 to 62 µg/mL (≈ 0.657 to 163 µM) in test [1] and 0.002 to 1.95 µg/mL (≈ 0.00526 to 5.13 µM) in test [3].
In the same order, the values of `CO[C@H]1/C=C/O[C@@]2(C)Oc3c(C)c(O)c4c(c3C2=O)C(=O)C(N2CCOCC2)=C(NC(=O)/C(C)=C\C=C\[C@H](C)[C@@H]2OC(C)(C)O[C@@H]([C@@H](C)[C@H](OC(=O)N3CCC(=O)CC3)[C@@H]1C)[C@@H]2C)C4=O` [Example 54, 25-O-Desacetyl-(carbonyl-N-(4-piperidone)) cyclic-21,23-(1-methylethylideneacetal) 3-morpholino rifamycin S] are 0.25 to 62 µg/mL (≈ 0.277 to 68.6 µM) and 0.002 to 1.95 µg/mL (≈ 0.00221 to 2.16 µM).
For `CO[C@H]1/C=C/O[C@@]2(C)Oc3c(C)c(O)c4c(c3C2=O)C(=O)C(N2CCOCC2)=C(NC(=O)/C(C)=C\C=C\[C@H](C)[C@@H]2OC(C)(C)O[C@@H]([C@@H](C)[C@H](OC(=O)N3CCC(=O)C3)[C@@H]1C)[C@@H]2C)C4=O` [Example 61], the results for the MIC in test [1] and in test [3] were 0.25 to 62 µg/mL (≈ 0.281 to 69.7 µM) and 0.002 to 1.95 µg/mL (≈ 0.00225 to 2.19 µM), respectively.
